Laboratory results taken from US10875875B2, “Propionic acid derivatives and methods of use thereof” (Aviara Pharmaceuticals, Inc., priority 2017, dated 2020).

Molecular target: α4β1 (Homo sapiens, UniProt P05556+P13612)
Experiment: α4β1 integrin inhibition, IC50
Format: binding
Conditions: read-out: α4β1 IC50

Chain of α4β1 (P13612 34-1032): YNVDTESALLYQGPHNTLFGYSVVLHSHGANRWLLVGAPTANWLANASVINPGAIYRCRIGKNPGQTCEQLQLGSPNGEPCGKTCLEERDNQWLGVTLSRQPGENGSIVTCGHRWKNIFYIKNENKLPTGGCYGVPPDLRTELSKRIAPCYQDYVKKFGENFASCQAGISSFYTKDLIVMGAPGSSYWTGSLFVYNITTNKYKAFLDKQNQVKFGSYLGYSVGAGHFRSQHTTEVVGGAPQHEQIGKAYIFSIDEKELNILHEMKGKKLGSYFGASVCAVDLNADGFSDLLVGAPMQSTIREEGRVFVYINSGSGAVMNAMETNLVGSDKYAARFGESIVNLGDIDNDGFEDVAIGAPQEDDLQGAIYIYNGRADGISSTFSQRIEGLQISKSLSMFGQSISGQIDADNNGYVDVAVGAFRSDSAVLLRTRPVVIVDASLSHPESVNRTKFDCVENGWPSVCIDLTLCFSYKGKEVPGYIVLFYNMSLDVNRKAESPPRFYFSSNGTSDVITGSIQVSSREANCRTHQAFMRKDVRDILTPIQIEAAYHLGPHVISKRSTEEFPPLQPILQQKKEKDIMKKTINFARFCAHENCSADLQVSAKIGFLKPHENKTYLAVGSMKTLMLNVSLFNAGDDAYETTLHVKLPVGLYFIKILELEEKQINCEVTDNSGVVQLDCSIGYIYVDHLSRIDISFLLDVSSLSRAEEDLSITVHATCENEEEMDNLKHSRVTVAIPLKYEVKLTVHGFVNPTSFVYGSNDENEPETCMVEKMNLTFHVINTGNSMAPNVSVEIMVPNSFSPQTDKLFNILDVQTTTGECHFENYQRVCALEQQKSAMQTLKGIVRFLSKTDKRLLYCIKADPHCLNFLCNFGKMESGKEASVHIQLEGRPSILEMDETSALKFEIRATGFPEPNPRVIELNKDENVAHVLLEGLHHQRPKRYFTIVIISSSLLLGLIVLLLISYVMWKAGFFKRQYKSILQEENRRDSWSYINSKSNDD
Chain of α4β1 (P05556 21-798): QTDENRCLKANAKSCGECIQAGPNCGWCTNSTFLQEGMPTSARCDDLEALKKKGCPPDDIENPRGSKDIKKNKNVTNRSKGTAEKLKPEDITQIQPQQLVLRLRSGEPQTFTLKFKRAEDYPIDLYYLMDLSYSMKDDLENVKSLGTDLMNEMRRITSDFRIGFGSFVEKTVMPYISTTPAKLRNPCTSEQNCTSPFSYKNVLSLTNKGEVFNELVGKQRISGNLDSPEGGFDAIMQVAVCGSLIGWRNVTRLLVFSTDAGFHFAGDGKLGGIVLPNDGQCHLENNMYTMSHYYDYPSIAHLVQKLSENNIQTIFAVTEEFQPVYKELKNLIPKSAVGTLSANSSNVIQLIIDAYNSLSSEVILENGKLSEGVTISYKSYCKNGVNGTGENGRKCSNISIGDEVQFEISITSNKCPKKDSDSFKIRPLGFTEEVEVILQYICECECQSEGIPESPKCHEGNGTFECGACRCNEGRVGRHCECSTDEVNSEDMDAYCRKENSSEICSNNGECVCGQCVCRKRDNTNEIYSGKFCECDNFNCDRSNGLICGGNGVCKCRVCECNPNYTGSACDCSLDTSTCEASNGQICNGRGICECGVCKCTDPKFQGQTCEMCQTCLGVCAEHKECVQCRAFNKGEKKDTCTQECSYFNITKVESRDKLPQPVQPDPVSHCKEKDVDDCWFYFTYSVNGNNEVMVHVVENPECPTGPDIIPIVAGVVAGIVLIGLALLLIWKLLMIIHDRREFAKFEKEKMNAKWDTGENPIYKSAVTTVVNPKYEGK

| IC50 | SMILES |
| --- | --- |
| < 20 nM | COc1cccc(-c2cc([C@H](CC(=O)O)NC(=O)Nc3c(O)cc(C)n(C)c3=O)ccc2OC(F)(F)F)c1 [1-635, sodium (S)-3-(3-(1,6-dimethyl-4-oxido-2-oxo-1,2-dihydropyridin-3-yl)ureido)-3-(3′-methoxy-6-(trifluoromethoxy)biphenyl-3-yl)propanoate] |
| < 200 nM | Cc1cccc(C)c1-c1ccc([C@H](CC(=O)O)NC(=O)Nc2c(O)ccn(C)c2=O)cc1 [1-636, sodium (S)-3-(2′,6′-dimethylbiphenyl-4-yl)-3-(3-(1-methyl-4-oxido-2-oxo-1,2-dihydropyridin-3-yl)ureido)propanoate] |
| < 20 nM | Cc1ccccc1-c1ccc([C@H](CC(=O)O)NC(=O)Nc2c(O)cc(C)n(C)c2=O)cc1 [1-637, sodium (S)-3-(3-(1,6-dimethyl-4-oxido-2-oxo-1,2-dihydropyridin-3-yl)ureido)-3-(2′-methylbiphenyl-4-yl)propanoate] |
| < 200 nM | Cc1cccc(C)c1-c1ccc([C@H](CC(=O)O)NC(=O)Nc2c(O)cc(C)n(C)c2=O)cc1 [1-638, sodium (S)-3-(3-(1,6-dimethyl-4-oxido-2-oxo-1,2-dihydropyridin-3-yl)ureido)-3-(2′,6′-dimethylbiphenyl-4-yl)propanoate] |
| < 20 nM | Cn1ccc(O)c(NC(=O)N[C@@H](CC(=O)O)c2cccc(-c3ccccn3)c2)c1=O [1-639, sodium (S)-3-(3-(1-methyl-4-oxido-2-oxo-1,2-dihydropyridin-3-yl)ureido)-3-(3-(pyridin-2-yl)phenyl)propanoate] |
| < 20 nM | COc1ccc(-c2cccc([C@H](CC(=O)O)NC(=O)Nc3c(O)ccn(C)c3=O)c2)nn1 [1-640, sodium (S)-3-(3-(6-methoxypyridazin-3-yl)phenyl)-3-(3-(1-methyl-4-oxido-2-oxo-1,2-dihydropyridin-3-yl)ureido)propanoate] |
| < 20 nM | Cn1ccc(O)c(NC(=O)N[C@@H](CC(=O)O)c2cncc(-c3ccccc3)c2)c1=O [1-641, sodium (S)-3-(3-(1-methyl-4-oxido-2-oxo-1,2-dihydropyridin-3-yl)ureido)-3-(5-phenylpyridin-3-yl)propanoate] |

Second part, the molecule before the results:

| SMILES | IC50 |
| --- | --- |
| Cc1cn(C)c(=O)c(NC(=O)N[C@@H](CC(=O)O)c2ccc(-c3ccccc3)s2)c1O [1-628, sodium (S)-3-(3-(1,5-dimethyl-4-oxido-2-oxo-1,2-dihydropyridin-3-yl)ureido)-3-(5-phenylthiophen-2-yl)propanoate] | < 200 nM |
| Cn1ccc(O)c(NC(=O)N[C@@H](CC(=O)O)c2cccc(-c3nccs3)c2)c1=O [1-630, sodium (S)-3-(3-(1-methyl-4-oxido-2-oxo-1,2-dihydropyridin-3-yl)ureido)-3-(3-(thiazol-2-yl)phenyl)propanoate] | < 20 nM |
| Cc1cc(-c2cccc(OC(F)(F)F)c2)cc([C@H](CC(=O)O)NC(=O)Nc2c(O)cc(C)n(C)c2=O)c1 [1-631, sodium (S)-3-(3-(1,6-dimethyl-4-oxido-2-oxo-1,2-dihydropyridin-3-yl)ureido)-3-(5-methyl-3′-(trifluoromethoxy)biphenyl-3-yl)propanoate] | < 20 nM |
| Cc1cc(O)c(NC(=O)N[C@@H](CC(=O)O)c2cc(F)cc(-c3ccc(F)cc3F)c2)c(=O)n1C [1-632, sodium (S)-3-(3-(1,6-dimethyl-4-oxido-2-oxo-1,2-dihydropyridin-3-yl)ureido)-3-(2′,4′,5-trifluorobiphenyl-3-yl)propanoate] | < 20 nM |
| Cn1ccc(O)c(NC(=O)N[C@@H](CC(=O)O)c2cc(F)cc(-c3ccc(F)cc3F)c2)c1=O [1-633, sodium (S)-3-(3-(1-methyl-4-oxido-2-oxo-1,2-dihydropyridin-3-yl)ureido)-3-(2′,4′,5-trifluorobiphenyl-3-yl)propanoate] | < 20 nM |
| COc1cccc(-c2cc([C@H](CC(=O)O)NC(=O)Nc3c(O)ccn(C)c3=O)ccc2OC(F)(F)F)c1 [1-634, sodium (S)-3-(3′-methoxy-6-(trifluoromethoxy)biphenyl-3-yl)-3-(3-(1-methyl-4-oxido-2-oxo-1,2-dihydropyridin-3-yl)ureido)propanoate] | < 20 nM |
